Laboratory results from patent US8937091B2 (Japan Science and Technology Agency, priority 2009, dated 2015).

Legend:
[1] = system: SOCE (store operated calcium entry) in CHO cells; experiment: Assay of SOCE (store operated calcium entry)-inhibiting action; format: cell-based, Chinese hamster; conditions: for SOCE level (percentage of inhibition) / inhibition at 10 µM / inhibition at 30 µM / inhibition at 100 µM: CHO cells, thapsigargin; for inhibition at 10 µM / inhibition at 30 µM / inhibition at 100 µM / IC50: Cricetulus griseus, CHO; for inhibition at 10 µM / inhibition at 30 µM / inhibition at 100 µM: read-out: SOCE level (percentage of inhibition); for IC50: Table 1
Protocol: The extracellular fluid (i.e., medium) of cultured Chinese hamster ovary (CHO) cells was replaced by BSS containing no calcium. One minute later, a test compound was added. Two minutes later, 1 μM thapsigargin was added to cause depletion of the intracellular calcium store. Nine minutes later, calcium chloride (final concentration: 2 mM) was added to the extracellular fluid. The SOCE-inhibiting action levels at different compound concentrations after the addition of calcium chloride were determined as the percentage of inhibition (%) by evaluating the influence of the compound on the degree of increase in the intracellular calcium concentration.
(§1) Hereafter, the numerals in parentheses written after the TG level, the SOCE level, and the IICR level correspond to the test compound concentrations. The number following the name of each title compound used in the Examples below represents a compound ID number designated arbitrarily by the present inventors.

[2] = system: IICR (IP3 induced calcium release) in CHO cells; experiment: Assay of IICR (IP3 induced calcium release)-inhibiting action; format: cell-based, Chinese hamster; conditions: for IICR level (percentage of inhibition) / inhibition at 10 µM / inhibition at 30 µM / inhibition at 100 µM: CHO cells, 10 μM ATP; for inhibition at 10 µM / inhibition at 30 µM / inhibition at 100 µM / IC50: Cricetulus griseus, CHO; for inhibition at 10 µM / inhibition at 30 µM / inhibition at 100 µM: read-out: IICR level (percentage of inhibition); for IC50: Table 1
Protocol: The extracellular fluid (i.e., medium) of cultured CHO cells was replaced by BSS containing calcium. One minute later, a test compound was added. Two minutes later, 10 μM ATP was added. The IICR-inhibiting action levels at different compound concentrations after the addition of ATP were determined as the percentage of inhibition (%) by evaluating the influence of the compound on the degree of increase in the intracellular calcium concentration.
as §1

| Structure (SMILES) | SOCE level (percentage of inhibition) ([1]; test compound 10 μmol) [%] | SOCE level (percentage of inhibition) ([1]; test compound 30 μmol) [%] | SOCE level (percentage of inhibition) ([1]; test compound 100 μmol) [%] | IICR level (percentage of inhibition) ([2]; test compound 10 μmol) [%] | IICR level (percentage of inhibition) ([2]; test compound 30 μmol) [%] | IICR level (percentage of inhibition) ([2]; test compound 100 μmol) [%] | inhibition at 10 µM ([1]; test compound 10 μmol) [%] | inhibition at 30 µM ([1]; test compound 30 μmol) [%] | inhibition at 100 µM ([1]; test compound 100 μmol) [%] | inhibition at 10 µM ([2]; test compound 10 μmol) [%] | inhibition at 30 µM ([2]; test compound 30 μmol) [%] | inhibition at 100 µM ([2]; test compound 100 μmol) [%] | IC50 [1] [µM] | IC50 [2] [µM] |
| --- | --- | --- | --- | --- | --- | --- | --- | --- | --- | --- | --- | --- | --- | --- |
| CN(CCC(=O)c1ccc2ccccc2c1)Cc1ccccc1 [Example 99, 2-(N-methylbenzyl)aminoethyl-2-naphthylketone] | 0 | 0 | 30 | 0 | 20 | 60 | – | – | – | – | – | – | – | – |
| CN(CCO)CCC(=O)c1ccc2ccccc2c1 [Example 100, 2-(N-methylhydroxyethyl)aminoethyl-2-naphthylketone] | – | – | – | – | – | – | 0 | 0 | 20 | 0 | 0 | 60 | – | – |
| O=C(CCN(CCO)CCO)c1cnccn1 [Example 102, N,N-bis(2-hydroxyethyl)aminoethyl-2-pyrazylketone] | – | – | – | – | – | – | 0 | 0 | 0 | 0 | 20 | 100 | – | – |
| CC(C)N(CCC(=O)c1ccc(Cc2ccccc2)cc1)Cc1ccccc1 [Example 103, 2-(N-isopropylbenzyl)aminoethyl-4-benzylphenylketone] | 10 | 50 | 60 | 80 | 80 | 100 | – | – | – | – | – | – | – | – |
| CN(CCC(=O)c1ccc(Cc2ccccc2)cc1)Cc1ccccc1 [Example 104, 2-(N-methylbenzyl)aminoethyl-4-benzylphenylketone] | – | – | – | – | – | – | 0 | 10 | 70 | 40 | 20 | 90 | – | – |
| CC(C)(C)N(CCC(=O)c1ccc(Cc2ccccc2)cc1)Cc1ccccc1 [Example 105, 2-(N-t-butylbenzyl)aminoethyl-4-benzylphenylketone] | – | – | – | – | – | – | 0 | 20 | 40 | 40 | 70 | 90 | – | – |
| CC(C)N(CCC(=O)c1cccnc1)Cc1ccccc1 [Example 106, 2-(N-isopropylbenzyl)aminoethyl-3-pyridylketone] | – | – | – | – | – | – | 0 | 0 | 0 | 90 | 90 | 100 | > 100 | < 10 |
| CC(C)N(CCC(=O)c1ccncc1)Cc1ccccc1 [Example 107, 2-(N-isopropylbenzyl)aminoethyl-4-pyridylketone] | – | – | – | – | – | – | 0 | 20 | 30 | 30 | 90 | 90 | > 100 | < 10 |
| CCCCN(CCO)CCC(=O)c1cnccn1 [Example 108, 2-(N-butyl-2-hydroxyethyl)aminoethyl-2-pyrazinylketone] | – | – | – | – | – | – | 0 | 0 | 0 | 0 | 10 | 80 | – | – |
| CC(C)N(CCC(=O)c1ccco1)Cc1ccccc1 [Example 109, 2-(N-isopropylbenzyl)aminoethyl-2-furylketone] | – | – | – | – | – | – | 0 | 0 | 10 | 20 | 90 | 70 | – | – |
| CC(C)N(CCC(=O)c1ccc[nH]1)Cc1ccccc1 [Example 110, 2-(N-isopropylbenzyl)aminoethyl-2-pyrroleketone] | – | – | – | – | – | – | 0 | 0 | 0 | 20 | 40 | 100 | – | – |
| CCN(CCC(=O)c1cnccn1)Cc1ccccc1 [Example 111, 2-(N-ethylbenzyl)aminoethyl-2-pyrazinylketone] | – | – | – | – | – | – | 0 | 0 | 0 | 30 | 80 | 95 | – | – |
| O=C(CCNCCS)c1ccc(Oc2ccccc2)cc1 [Example 112, 2-(N-mercaptoethyl)aminoethyl-4-phenoxyphenylketone] | – | – | – | – | – | – | 0 | 0 | 30 | 20 | 30 | 40 | – | – |
| O=C(CCNCCC1=NCN=C1)c1ccc(Oc2ccccc2)cc1 [Example 113] | – | – | – | – | – | – | 0 | 10 | 40 | 70 | 90 | 100 | – | – |
| CCCCN(CCO)CCC(=O)c1ccc(Oc2ccccc2)cc1 [Example 114, 2-(N-hydroxyethylbutyl)aminoethyl-4-phenoxyphenylketone] | – | – | – | – | – | – | 0 | 10 | 40 | 70 | 100 | 30 | – | – |
| O=C(CCN1CCN(C(=O)c2ccco2)CC1)c1ccc(Oc2ccccc2)cc1 [Example 115, 2-(N-furoylpiperazyl)aminoethyl-4-phenoxyphenylketone] | – | – | – | – | – | – | 0 | 0 | 30 | 20 | 20 | 20 | – | – |
| CCN(CC)CCC(=O)c1ccc(Oc2ccccc2)cc1 [Example 116, 2-(N-diethyl)aminoethyl-4-phenoxyphenylketone] | – | – | – | – | – | – | 0 | 0 | 20 | 20 | 20 | 70 | – | – |
| CC(C)N(CCC(=O)c1cnccn1)Cc1ccccc1 [Example 117, 2-(N-isopropylbenzyl)aminoethyl-2-pyrazylketone] | – | – | – | – | – | – | 0 | 0 | 0 | 20 | 50 | 90 | > 100 | 30 |
| NCCCCNCCC(=O)c1ccc2ccccc2c1 [Example 118, 2-(N-aminobutyl)aminoethyl-2-naphthylketone] | – | – | – | – | – | – | 0 | 0 | 0 | 0 | 0 | 0 | – | – |
| NCCCNCCCCNCCC(=O)c1ccc2ccccc2c1 [Example 119, 2-(N-aminopropylaminobutyl)aminoethyl-2-naphthylketone] | – | – | – | – | – | – | 0 | 0 | 0 | 0 | 0 | 0 | – | – |
| CC(C)N(CCC(=O)c1nccs1)Cc1ccccc1 [Example 120, 2-(N-isopropylbenzyl)aminoethyl-2-thiazolylketone] | – | – | – | – | – | – | 0 | 0 | 20 | 10 | 90 | 100 | – | – |
| CC(C)(C)N(CCC(=O)c1ccco1)Cc1ccccc1 [Example 121, 2-(N-t-butylbenzyl)aminoethyl-2-furylketone] | – | – | – | – | – | – | 0 | 0 | 0 | 10 | 50 | 100 | > 100 | 30 |
| CC(C)(C)N(CCO)CCC(=O)c1nccs1 [Example 122, 2-(N-t-butylhydroxyethyl)aminoethyl-2-thiazolylketone] | – | – | – | – | – | – | 0 | 0 | 0 | 0 | 0 | 0 | – | – |
| CC(C)(C)N(CCO)CCC(=O)c1ccco1 [Example 123, 2-(N-t-butylhydroxyethyl)aminoethyl-2-furylketone] | – | – | – | – | – | – | 0 | 10 | 20 | 20 | 20 | 70 | – | – |
| O=C(CCN(CCO)Cc1ccccc1)c1ccco1 [Example 124, 2-(N-hydroxyethylbenzyl)aminoethyl-2-furylketone] | – | – | – | – | – | – | 0 | 0 | 0 | 20 | 20 | 70 | – | – |
